# Reference: US10807992B2, “Single enantiomer antiparasitic compounds” (priority 2017, dated 2020)
# Experiments:
# [1] = tested on: Ctenocephalides felis; assay: In vitro ingestion activity against fleas (artificial feeding, bovine blood); conditions: for mortality at 0.003 ppm: Trial 3, dose 0.003 ppm; for mortality at 0.012 ppm: Trial 3, dose 0.012 ppm; for mortality at 0.049 ppm: Trial 3, dose 0.049 ppm; for mortality at 0.2 ppm: Trial 3, dose 0.20 ppm; for mortality at 0.78 ppm: Trial 3, dose 0.78 ppm; for mortality at 3.125 ppm: Trial 3, dose 3.125 ppm; for mortality at 12.5 ppm: Trial 3, dose 12.5 ppm; for mortality at 50 ppm: Trial 3, dose 50 ppm
# Procedure: Ctenocephalides felis (Avista Pharma, Inc., RTP, NC), 1-7days post hatch, held in an environmental chamber at 24° C., 85% humidity.
# For flea ingestion tests, serial dilutions of the compound stock were performed using DMSO to achieve the desired range for EC50 and EC90 determination. An aliquot of each compound dilution was added to organic bovine blood with a final DMSO concentration of 0.5% and placed in an artificial feeding container.
# Compounds tested were C1 racemate, the C1 (R) enantiomer, and the C1 (S) enantiomer. For Trial 3, the C1 (R) enantiomer and the C1 (S) enantiomer were further chiral purified to achieve >99% purity.
# For both contact and ingestion assays, ten newly emerged unfed adult fleas, 0-7 days old Ctenocephalides felis, from a laboratory colony, were aspirated into each vial or cage. The test vials for contact assays were held in an environmental chamber at 24° C., 80% humidity with light/dark cycles (12 hours each). The cages for flea ingestion assays were held in a temperature-controlled artificial feeding apparatus to allow continual access to organic bovine blood containing the desired concentration of compound. Fresh aliquots of compound-spiked bovine blood were provided daily for the duration of the study.
# Fleas were evaluated for percent mortality at various time points between 2 hours and 48 hours post infestation. Fleas showing normal movement and/or jumping ability were considered viable and those showing no movement after tapping the vials were scored as dead.
# [2] = tested on: Ctenocephalides felis (flea), Ixodidae (tick), and Aedes aegypti (mosquito); assay: Bio-profiling of C1 racemate and enantiomers, overall conclusions of contact and ingestion assays; conditions: adult ticks, contact assays
# From the text: 1-[6-[5-(3,5-dichloro-4-fluoro-phenyl)-5-(trifluoromethyl)-4H-isothiazol-3-yl]spiro[1H-isobenzofuran-3,3′-azetidine]-1′-yl]-3,3,3-trifluoro-propan-1-one (referred to herein as C1 racemate) is an isothiazoline compound consisting of two isomers: (R)-1-[6-[5-(3,5-dichloro-4-fluoro-phenyl)-5-(trifluoromethyl)-4H-isothiazol-3-yl]spiro[1H-isobenzofuran-3,3′-azetidine]-1′-yl]-3,3,3-trifluoro-propan-1-one (referred herein as C1 (R) enantiomer) and (S)-1-[6-[5-(3,5-dichloro-4-fluoro-phenyl)-5-(trifluoromethyl)-4H-isothiazol-3-yl]spiro[1H-isobenzofuran-3,3′-azetidine]-1′-yl]-3,3,3-trifluoro-propan-1-one (referred to herein as C1 (S) enantiomer). The racemic compound and the two enantiomers were tested against adult stages of Ctenocephalides felis (flea) Ixodidae (tick), and Aedes aegypti (mosquito). The compounds were solubilized in DMSO or an acetone/triton solution and dose response curves were generated for the individual compounds.
# For evaluation of contact activity, coated-substrate (flea) and coated-vial (tick and mosquito) assay procedures were used. For evaluation of flea ingestion activity, an artificial feeding assay procedure was used. Insecticidal activity was evaluated at various time-points for each assay. Dose response curves were generated in duplicate on three independent test occasions (Trial 1-Trial 3) and EC50 and EC90 values were calculated.
# Therefore, mortality correction was not performed in the assays. Calculation of EC50 and EC90 values was performed using XLfit. Both EC50 and EC90 values were calculated using the average of the two replicates for each Trial.
# The C1 (R) enantiomer, C1 (S) enantiomer, and the C1 racemate were successfully evaluated against flea, tick, and mosquito contact and ingestion in vitro screening assays.
structure (smiles),measurement,setting,value
"O=C(CC(F)(F)F)N1CC2(C1)OCc1cc(C3=NSC(c4cc(Cl)c(F)c(Cl)c4)(C(F)(F)F)C3)ccc12 (racemic) [C1 racemate, 1-[6-[5-(3,5-dichloro-4-fluoro-phenyl)-5-(trifluoromethyl)-4H-isothiazol-3-yl]spiro[1H-isobenzofuran-3,3′-azetidine]-1′-yl]-3,3,3-trifluoro-propan-1-one]",mortality at 0.003 ppm,"[1]; 6 h, Rep1",0%
same,mortality at 0.003 ppm,"[1]; 6 h, Rep2",0%
same,mortality at 0.012 ppm,"[1]; 6 h, Rep1",0%
same,mortality at 0.012 ppm,"[1]; 6 h, Rep2",0%
same,mortality at 0.049 ppm,"[1]; 6 h, Rep1",0%
same,mortality at 0.049 ppm,"[1]; 6 h, Rep2",0%
same,mortality at 0.2 ppm,"[1]; 6 h, Rep1",10%
same,mortality at 0.2 ppm,"[1]; 6 h, Rep2",10%
same,mortality at 0.78 ppm,"[1]; 6 h, Rep1",70%
same,mortality at 0.78 ppm,"[1]; 6 h, Rep2",90%
same,mortality at 3.125 ppm,"[1]; 6 h, Rep1",90%
same,mortality at 3.125 ppm,"[1]; 6 h, Rep2",70%
same,mortality at 12.5 ppm,"[1]; 6 h, Rep1",90%
same,mortality at 12.5 ppm,"[1]; 6 h, Rep2",100%
same,mortality at 50 ppm,"[1]; 6 h, Rep1",90%
same,mortality at 50 ppm,"[1]; 6 h, Rep2",70%
same,mortality at 0.003 ppm,"[1]; 24 h, Rep1",0%
same,mortality at 0.003 ppm,"[1]; 24 h, Rep2",0%
same,mortality at 0.012 ppm,"[1]; 24 h, Rep1",0%
same,mortality at 0.012 ppm,"[1]; 24 h, Rep2",0%
same,mortality at 0.049 ppm,"[1]; 24 h, Rep1",0%
same,mortality at 0.049 ppm,"[1]; 24 h, Rep2",10%
same,mortality at 0.2 ppm,"[1]; 24 h, Rep1",30%
same,mortality at 0.2 ppm,"[1]; 24 h, Rep2",80%
same,mortality at 0.78 ppm,"[1]; 24 h, Rep1",90%
same,mortality at 0.78 ppm,"[1]; 24 h, Rep2",90%
same,mortality at 3.125 ppm,"[1]; 24 h, Rep1",90%
same,mortality at 3.125 ppm,"[1]; 24 h, Rep2",90%
same,mortality at 12.5 ppm,"[1]; 24 h, Rep1",90%
same,mortality at 12.5 ppm,"[1]; 24 h, Rep2",100%
same,mortality at 50 ppm,"[1]; 24 h, Rep1",90%
same,mortality at 50 ppm,"[1]; 24 h, Rep2",80%
same,mortality at 0.003 ppm,"[1]; 48 h, Rep1",0%
same,mortality at 0.003 ppm,"[1]; 48 h, Rep2",0%
same,mortality at 0.012 ppm,"[1]; 48 h, Rep1",0%
same,mortality at 0.012 ppm,"[1]; 48 h, Rep2",0%
same,mortality at 0.049 ppm,"[1]; 48 h, Rep1",10%
same,mortality at 0.049 ppm,"[1]; 48 h, Rep2",10%
same,mortality at 0.2 ppm,"[1]; 48 h, Rep1",80%
same,mortality at 0.2 ppm,"[1]; 48 h, Rep2",80%
same,mortality at 0.78 ppm,"[1]; 48 h, Rep1",90%
same,mortality at 0.78 ppm,"[1]; 48 h, Rep2",100%
same,mortality at 3.125 ppm,"[1]; 48 h, Rep1",90%
same,mortality at 3.125 ppm,"[1]; 48 h, Rep2",100%
same,mortality at 12.5 ppm,"[1]; 48 h, Rep1",90%
same,mortality at 12.5 ppm,"[1]; 48 h, Rep2",100%
same,mortality at 50 ppm,"[1]; 48 h, Rep1",90%
same,mortality at 50 ppm,"[1]; 48 h, Rep2",90%
same,potency against ticks,[2],excellent potency against ticks
